Experimental findings from patent publication US20060276465A1, “1,2-di(cyclic) substituted benzene compounds” (Eisai R&D Management Co., Ltd., priority 2003, published 2006) are described below.

In experiment [1] the test system is colon-infiltrating neutrophils (myeloperoxidase enzyme activity). Description: Oxazolone-induced colon neutrophil infiltration model (colon myeloperoxidase activity). The experiment is classed as in vivo. The following applies: myeloperoxidase enzyme activity inhibitory rate vs oxazolone control group; 30 mg/kg orally 30 minutes prior to intrarectal challenge; colon 4 hours after challenge; male Balb/c mice. From the text:
The “di(C1-6 alkyl)amino” of Group D1 may be either symmetric or asymmetric, and as examples there may be mentioned straight-chain or branched-chain groups such as dimethylamino, methylethylamino, diethylamino, methylpropylamino, ethylpropylamino, dipropylamino, diisopropylamino, dibutylamino, diisobutylamino, di(s-butyl)amino, di(t-butyl)amino, methylpentylamino, dipentylamino, diisopentylamino, di(2-methylbutyl)amino, di(neopentyl)amino, di(1-ethylpropyl)amino, dihexylamino, methylisohexylamino, diisohexylamino, di(4-methylpentyl)amino, di(3-methylpentyl)amino, di(2-methylpentyl)amino, di(1-methylpentyl)amino, di(3,3-dimethylbutyl)amino, di(2,2-dimethylbutyl)amino, di(1,1-dimethylbutyl)amino, di(1,2-dimethylbutyl)amino, di(1,3-dimethylbutyl)amino, di(2,3-dimethylbutyl)amino, di(1-ethylbutyl)amino or di(2-ethylbutyl)amino, among which dimethylamino, methylethylamino or diethylamino is preferred, and dimethylamino is particularly preferred.
The “C2-7 alkylcarbonylamino” of Group D1 is an amino group having the aforementioned “C2-7 alkylcarbonyl” bonded thereto, and as examples there may be mentioned straight-chain or branched-chain groups such as acetylamino, ethylcarbonylamino, n-propylcarbonylamino, isopropylcarbonylamino, n-butylcarbonylamino, isobutylcarbonylamino, s-butylcarbonylamino, t-butylcarbonylamino, pentylcarbonylamino, isopentylcarbonylamino, 2-methylbutylcarbonylamino, neopentylcarbonylamino, 1-ethylpropylcarbonylamino, hexylcarbonylamino, isohexylcarbonylamino, 4-methylpentylcarbonylamino, 3-methylpentylcarbonylamino, 2-methylpentylcarbonylamino, 1-methylpentylcarbonylamino, 3,3-dimethylbutylcarbonylamino, 2,2-dimethylbutylcarbonylamino, 1,1-dimethylbutylcarbonylamino, 1,2-dimethylbutylcarbonylamino, 1,3-dimethylbutylcarbonylamino, 2,3-dimethylbutylcarbonylamino, 1-ethylbutylcarbonylamino or 2-ethylbutylcarbonylamino, among which amino groups having C2-5 alkylcarbonyl bonded thereto are preferred, and acetylamino or ethylcarbonylamino is particularly preferred.
As examples of the “3- to 8-membered cycloalkyl” of the “3- to 8-membered cycloalkyl optionally substituted with a substituent selected from Group H1” of Group D1 and the “3- to 8-membered cycloalkyl” of Group D2 (mentioned below) there may be mentioned the same ones listed above, among which cyclopropyl, cyclobutyl, cyclopentyl or cyclohexyl is preferred, cyclopropyl or cyclobutyl is more preferred, and cyclopropyl is most preferred.
As exampled of the “C2-7 alkoxycarbonyl” of Group D1 there may be mentioned the same ones listed above, among which methoxycarbonyl or ethoxycarbonyl is preferred. […]

The test system of experiment [2] is human peripheral blood neutrophils. The experiment can be described thus: Human peripheral blood neutrophil adhesion system (adhesion to HUVEC immobilized plate, PMA-stimulated). The experiment is classed as cell-based. Particulars: concentration inhibiting by 50% the PMA-stimulated increase in neutrophils adhered to HUVEC. The text has this: As examples of the “C2-7 alkylcarbonyl” of Group W1 there may be mentioned the same ones listed above, among which C2-5 groups are preferred, and acetyl is particularly preferred.
As examples of the “C1-6 alkyl” for R^6X and R^7X there may be mentioned the same ones listed above.
As examples of the “halogen” of Group C1 there may be mentioned the same ones listed above, among which bromine, fluorine or chlorine is preferred.
As examples of the “C1-6 alkyl” of Group C1 there may be mentioned the same ones listed above, among which C1-4 groups are preferred, and methyl is particularly preferred.
As examples of the “C1-6 alkoxy” of Group C1 there may be mentioned the same ones listed above, among which C1-4 groups are preferred, and methoxy or ethoxy is particularly preferred.
As examples of the “halogen” of Group D1 and Group D2 (mentioned below) there may be mentioned the same ones listed above, among which fluorine or chlorine is preferred.
As examples of the “C1-6 alkoxy” of Group D1 and Group D2 (mentioned below) there may be mentioned the same ones listed above, among which C1-4 groups are preferred, and methoxy or ethoxy is particularly preferred.
The “C1-6 alkylthio” of Group D1 is a thio group having the aforementioned “C1-6 alkyl” bonded thereto, and as examples there may be mentioned straight-chain or branched-chain groups such as methylthio, ethylthio, propylthio, isopropylthio, […], isobutylthio, s-butylthio, t-butylthio, pentylthio, isopentylthio, 2-methylbutylthio, neopentylthio, 1-ethylpropylthio, hexylthio, isohexylthio, 4-methylpentylthio, 3-methylpentylthio, 2-methylpentylthio, 1-methylpentylthio, 3,3-dimethylbutylthio, 2,2-dimethylbutylthio, 1,1-dimethylbutylthio, 1,2-dimethylbutylthio, 1,3-dimethylbutylthio, 2,3-dimethylbutylthio, 1-ethylbutylthio or 2-ethylbutylthio, among which C1-4 groups are preferred, and methylthio or ethylthio is particularly preferred.
As examples of the “C1-6 alkylsulfonyl” of Group D1 there may be mentioned the same ones listed above, among which C1-4 groups are preferred, and methylsulfonyl or ethylsulfonyl is particularly preferred.
The “C1-6 alkylsulfinyl” of Group D1 is a sulfinyl group having the aforementioned “C1-6 alkyl” bonded thereto, as examples there may be mentioned straight-chain or branched-chain groups such as methylsulfinyl, ethylsulfinyl, propylsulfinyl, isopropylsulfinyl, […], isobutylsulfinyl, s-butylsulfinyl, t-butylsulfinyl, pentylsulfinyl, isopentylsulfinyl, 2-methylbutylsulfinyl, neopentylsulfinyl, 1-ethylpropylsulfinyl, hexylsulfinyl, isohexylsulfinyl, 4-methylpentylsulfinyl, 3-methylpentylsulfinyl, 2-methylpentylsulfinyl, 1-methylpentylsulfinyl, 3,3-dimethylbutylsulfinyl, 2,2-dimethylbutylsulfinyl, 1,1-dimethylbutylsulfinyl, 1,2-dimethylbutylsulfinyl, 1,3-dimethylbutylsulfinyl, 2,3-dimethylbutylsulfinyl, 1-ethylbutylsulfinyl or 2-ethylbutylsulfinyl, among which C1-4 groups are preferred, and methylsulfinyl or ethylsulfinyl is particularly preferred.

In another experiment the test system is Jurkat cells. Description: Jurkat cell adhesion system (adhesion to immobilized human fibronectin, PMA-stimulated). The following applies: concentration inhibiting by 50% the PMA-stimulated increase in adhered Jurkat cells on human fibronectin. The experiment is classed as cell-based. The text has this: The “C1-6 haloalkyl” of Group A1 and Group A2 (mentioned below) is aforementioned “C1-6 alkyl” having 1-6 aforementioned “halogen” bonded thereto, as examples there may be mentioned straight-chain or branched-chain alkyl groups such as methyl, ethyl, n-propyl, isopropyl, n-butyl, isobutyl, s-butyl, t-butyl, pentyl, isopentyl, 2-methylbutyl, neopentyl, 1-ethylpropyl, hexyl, isohexyl, 4-methylpentyl, 3-methylpentyl, 2-methylpentyl, 1-methylpentyl, 3,3-dimethylbutyl, 2,2-dimethylbutyl, 1,1-dimethylbutyl, 1,2-dimethylbutyl, 1,3-dimethylbutyl, 2,3-dimethylbutyl, 1-ethylbutyl or 2-ethylbutyl, having fluorine or chlorine bonded thereto, among which C1-4 alkyl having 1 to 3 fluorine or chlorine bonded thereto is preferred, and trifluoromethyl is particularly preferred.
As examples of the “C2-7 alkylene”, where C2-7 alkylene is permissible only in the case that a spiro union is formed together with the substituted 5- to 10-membered cycloalkyl or the substituted 5- to 10-membered cycloalkenyl, of Group A1 and Group A2 (mentioned below), there may be mentioned straight-chain or branched-chain groups such as 1,2-ethylene, trimethylene, propylene, ethylethylene, tetramethylene, pentamethylene, hexamethylene or heptamethylene, among which 1,2-ethylene, trimethylene, tetramethylene or pentamethylene is preferred, and 1,2-ethylene, tetramethylene or pentamethylene is particularly preferred.
As examples of the “halogen” of Group W1 there may be mentioned the same ones listed above, among which fluorine or chlorine is preferred.
As examples of the “C1-6 alkyl” of Group W1 there may be mentioned the same ones listed above, among which C1-4 groups are preferred, and methyl or ethyl is particularly preferred.
The “C2-7 alkoxyalkyl” of Group W1 is aforementioned “C1-6 alkyl” having the aforementioned “C1-6 alkoxy” bonded thereto, of 2 to 7 carbon (total number of carbon), and as examples there may be mentioned methoxymethyl, methoxyethyl, ethoxyethyl, methoxypropyl or propoxyethyl, among which methoxymethyl is preferred.
As examples of the “C1-6 alkoxy” of the “C1-6 alkoxy optionally substituted with a substituent selected from Group T1” of Group W1 there may be mentioned the same ones listed above, among which C1-4 groups are preferred, and methoxy, ethoxy, isopropoxy or propoxy is particularly preferred.

Broadly, the IC50 is the point on the concentration scale where inhibition reaches its midpoint. A higher IC50 goes with weaker potency in that assay.

Structures can show the parent of a compound that is named as a salt.

Consider `CCCCN1CCN(c2c(NC3CCOCC3)cccc2C2=CCC(C(C)(C)C)CC2)CC1.Cl` (racemic) [Example 5, [3-(4-t-Butylcyclohex-1-enyl)-2-(4-butylpiperazin-1-yl)phenyl](tetrahydropyran-4-yl)amine hydrochloride], for which the “Ihibitory Rate (%)” value in experiment [1] came to 3.0%. Besides, the IC50 in experiment [2] worked out at 11 µM; in the experiment on Jurkat cells, 2.9 µM.
For the molecule `CCCN1CCN(c2cc3c(cc2C2=CCC(C(C)(C)C)CC2)N(C)CCO3)CC1` (racemic) [Example 8, 6-(4-t-Butylcyclohex-1-enyl)-4-methyl-7-(4-propylpiperazin-1-yl)-3,4-dihydro-2H-benzo[1,4]oxazine hydrochloride], the half-inhibitory concentration (IC50) worked out at 16.7 µM in experiment [2] and 3.4 µM in the experiment on Jurkat cells.
Turning to `CCCCN1CCN(c2cc3c(cc2C2CCC(C(C)(C)C)CC2)N(C)C(=O)CO3)CC1` (stereo not drawn) [Example 6, 6-(4-t-Butylcyclohexyl)-7-(4-butylpiperazin-1-yl)-4-methyl-4H-benzo[1,4]oxazin-3-one], the “Ihibitory Rate (%)” value in experiment [1] amounted to 48.0%. Besides, the IC50 in experiment [2] worked out at 11.7 µM; with Jurkat cells, 2.9 µM.
In the case of `CCCCN1CCN(c2cc3c(cc2C2CCC(C(C)(C)C)CC2)N(C)CCO3)CC1.Cl` (stereo not drawn) [Example 7, 6-(4-t-Butylcyclohexyl)-7-(4-butylpiperazin-1-yl)-4-methyl-3,4-dihydro-2H-benzo[1,4]oxazine hydrochloride], the “Ihibitory Rate (%)” value in experiment [1] is recorded as 24.0%. Also, the IC50 turned out to be 17.4 µM in experiment [2] and 4.9 µM in the experiment on Jurkat cells.
Turning to `CCCCN1CCN(c2cc(OCCOC)ccc2C2CC(C)(C)CC(C)(C)C2)CC1` [Example 10, 1-Butyl-4-[5-(2-methoxyethoxy)-2-(3,3,5,5-tetramethylcyclohexyl)phenyl]piperazine hydrochloride], the IC50 stood at 7.8 µM in experiment [2] and 3.3 µM with Jurkat cells.
As to `CCCN1CCN(c2ccc(OCCOC)cc2C2CC(C)(C)CC(C)(C)C2)CC1` [Example 12, 1-[4-(2-Methoxyethoxy)-2-(3,3,5,5-tetramethylcyclohexyl)phenyl]-4-propylpiperazine hydrochloride], the results for the IC50 (in experiment [2]; with Jurkat cells) were 12.5 µM and 14.7 µM, respectively.
As for `CCCCN1CCN(c2cc3c(cc2C2=CC(C)(C)CC(C)(C)C2)OCO3)CC1` [Example 13, 1-Butyl-4-[6-(3,3,5,5-tetramethylcyclohex-1-enyl)benzo [1,3]dioxol-5-yl]piperazine hydrochloride], the figures for the 50% inhibitory concentration (IC50) (in experiment [2]; with Jurkat cells) were 21.7 µM and 3.8 µM, respectively.
As for `CCCCN1CCN(c2cc3c(cc2C2CC(C)(C)CC(C)(C)C2)OCO3)CC1` [Example 14, 1-Butyl-4-[6-(3,3,5,5-tetramethylcyclohexyl)benzo[1,3]dioxol-5-yl]piperazine hydrochloride], the figures for the IC50 (in experiment [2]; in the experiment on Jurkat cells) were 22.4 µM and 7.1 µM, respectively.
In the case of `CCCCN1CCN(c2cc3c(cc2C2CC(C)(C)CC(C)(C)C2)OCCO3)CC1` [Example 15, 1-Butyl-4-[7-(3,3,55-tetramethylcyclohexyl)-2,3-dihydrobenzo[1,4]dioxin-6-yl]piperazine hydrochloride], the IC50 in experiment [2] worked out at 11.8 µM; in the experiment with Jurkat cells, 4.7 µM.
Regarding `CCCCN1CCN(c2ccc(N3CCC4(CC3)OCCO4)cc2C2CCC(C(C)(C)C)CC2)CC1.Cl` (stereo not drawn) [Example 134, 8-{3-(4-t-Butylcyclohexyl)-4-(4-butylpiperazin-1-ylphenyl}-1,4-dioxa-8-aza-spiro [4.5]decane hydrochloride], the IC50 in experiment [2] was 6 µM; in the experiment on Jurkat cells it was 4 µM.
With `CCCCN1CCN(c2ccc(N3CCC4(CC3)OCCO4)cc2C2CCC(C(C)(C)C)CC2)CC1.Cl` (stereo not drawn) [Example 134], in experiment [1], the “Ihibitory Rate (%)” value amounted to 18.0%.
